Converted amounts (≈) assume the structure as drawn.
Key:
[1] = system: S.aureus ATCC 29213; type: cell-based, Staphylococcus aureus; conditions: ATCC 29213, 24 h
Experimental: (§1) Antimicrobial activity of the purified lipopeptoids was determined without replication against a panel of clinically relevant and standard reference bacterial strains according to CLSI macrobroth standards. Stock solutions at 512 µg/mL were prepared in water, with DMSO as needed, and testing was performed in glass test tubes using Muller-Hinton broth and bacteria adjusted to 5 × 10^5 CFU/mL. Bacteria were incubated with the lipopeptoid of interest for 24 hr at 37°C prior to reading.
(§2) The bacteria Staphylococcus aureus ATCC 29213, methicillin-resistant S. aureus ATCC 33592, Staphylococcus epidermidis ATCC 14990, Enterococcus faecalis ATCC 29212, E. faecium ATCC 27270, Streptococcus pneumoniae ATCC 49619, Escherichia coli ATCC 25922, Pseudomonas aeruginosa ATCC 27853, and Klebsiella pneumoniae ATCC 13883 were acquired from the American Type Culture Collection (ATCC) and used as quality controls. The clinical strains methicillin-resistant S. epidermidis (MRSE) CAN-ICU 61589, E. coli CAN-ICU 61714, E. coli CAN-ICU 63074, P. aeruginosa CAN-ICU 62308, Stenotrophomonas maltophilia CAN-ICU 62584, Acinetobacter baumannii CAN-ICU 63169 were obtained from hospitals across Canada as part of the CAN-ICU studies, while methicillin-susceptible S. epidermidis (MSSE) 81388 was obtained from the 2008 CANWARD study.
(§3) After subculturing the relevant bacteria twice from frozen stock, in vitro activities of the antimicrobials were determined by macrobroth dilution methodology in accordance with the Clinical and Laboratory Standards Institute (CLSI) guidelines (3). The MICs were determined using glass test tubes (2 mL/tube) containing doubling antimicrobial dilutions of cation adjusted Mueller-Hinton broth inoculated to achieve a final concentration of approximately 5 x 10^5 CFU/mL, incubated in ambient air for 24 hr prior to reading. Colony counts were performed periodically to confirm inocula. The ATCC organisms […] ATCC 49619, Staphylococcus aureus ATCC 29213, Enterococcus faecalis ATCC 29212, Escherichia coli ATCC 25922, and Pseudomonas aeruginosa ATCC 27853 were used as quality control and to allow easy comparison to previously tested antimicrobials. Each test in this series was performed without replication. In our experience with cationic amphiphiles the results are accurate to within a single doubling.

[2] = system: MRSE CAN-ICU 61589; type: cell-based, methicillin-resistant S. epidermidis; conditions: CAN-ICU 61589, 24 h
Experimental: as §1, §2, §3

[3] = system: P.aeruginosa CAN-ICU 62308; type: cell-based, Pseudomonas aeruginosa; conditions: CAN-ICU 62308, 24 h
Experimental: as §1, §2, §3

[4] = system: P.aeruginosa ATCC 27853; type: cell-based, Pseudomonas aeruginosa; conditions: ATCC 27853, 24 h
Experimental: as §1, §2, §3

[5] = system: S. maltophilia CAN-ICU 62584; type: cell-based, Stenotrophomonas maltophilia; conditions: CAN-ICU 62584, 24 h
Experimental: as §1, §2, §3

[6] = system: MSSE 81388 CANWARD 2008; type: cell-based, methicillin-susceptible S. epidermidis; conditions: 24 h
Experimental: as §1, §2, §3

[7] = system: A. baumannii CAN-ICU 63169; type: cell-based, Acinetobacter baumannii; conditions: CAN-ICU 63169, 24 h
Experimental: as §1, §2, §3

[8] = system: E. faecium ATCC 27270; type: cell-based; conditions: ATCC 27270, 24 h
Experimental: as §1, §2, §3

[9] = system: E. faecalis ATCC 29212; type: cell-based, Enterococcus faecalis; conditions: ATCC 29212, 24 h
Experimental: as §1, §2, §3

[10] = system: ovine erythrocytes; assay: Haemolytic assay; type: cell-based, sheep; conditions: ovine erythrocytes in Tris buffered saline, 30 minutes, absorbance of supernatant at 540 nm
Experimental: Mammalian cell toxicity was determined by measuring lysis of ovine erythrocytes, a standard model for human cell toxicity. Cells were prewashed with Tris buffered saline and then incubated with a variety of lipopeptoid concentrations for 30 minutes. Following centrifugation, lysis was evaluated by testing the absorbance of the solution at 540 nm, with 0.5% NH4OH used as a positive control.
Toxicity to mammalian cells was determined using a sheep red blood cell (erythrocyte) haemolytic assay (4). Erythrocytes were washed and resuspended in Tris buffered saline prior to use, at a concentration of 1.46 - 4.5 x 10^9 cells/mL (on average 3.08 x 10^9 cells/mL). The cell suspension was diluted with varying concentrations of antimicrobials, from 50 μg/mL to 1 mg/mL and incubated for thirty minutes (final erythrocyte concentration 4.08 x 10^8 cells/mL). The samples were centrifuged following treatment and the absorbance of the supernatant was measured at 540 nm. A solution of 0.5% […] was used as a positive control, with normal buffered solution as the negative control. The toxicity was assessed as a function of percent haemolysis.

[11] = system: K.pneumoniae ATCC 13883; type: cell-based, Klebsiella pneumoniae; conditions: ATCC 13883, 24 h
Experimental: as §1, §2, §3

[12] = system: E.coli ATCC 25922; type: cell-based, Escherichia coli; conditions: ATCC 25922, 24 h
Experimental: as §1, §2, §3

[13] = system: E.coli CAN-ICU 61714; type: cell-based, Escherichia coli; conditions: CAN-ICU 61714, 24 h
Experimental: as §1, §2, §3

[14] = system: E.coli CAN-ICU 63074; type: cell-based, Escherichia coli; conditions: CAN-ICU 63074, 24 h
Experimental: as §1, §2, §3

[15] = system: MRSA ATCC 33592; type: cell-based, methicillin-resistant S. aureus; conditions: ATCC 33592, 24 h
Experimental: as §1, §2, §3

[16] = system: S.pneumoniae ATCC 49619; type: cell-based, Streptococcus pneumoniae; conditions: ATCC 49619, 24 h
Experimental: as §1, §2, §3

Structure (SMILES)	MIC S.aureus [1]	MIC S.aureus in the presence of 4% bovine serum albumin [1]	MIC MRSE [2]	MIC MRSE in the presence of 4% bovine serum albumin [2]	MIC P.aeruginosa [3]	MIC P.aeruginosa in the presence of 4% bovine serum albumin [3]	MIC P.aeruginosa [4]	MIC P.aeruginosa in the presence of 4% bovine serum albumin [4]	MIC S. maltophilia [5]	MIC S. maltophilia in the presence of 4% bovine serum albumin [5]	MIC MSSE [6]	MIC MSSE in the presence of 4% bovine serum albumin [6]	MIC A. baumannii [7]	MIC A. baumannii in the presence of 4% bovine serum albumin [7]	MIC E. faecium [8]	MIC E. faecium in the presence of 4% bovine serum albumin [8]	MIC E. faecalis [9]	MIC E. faecalis in the presence of 4% bovine serum albumin [9]	MIC K.pneumoniae [11]	MIC K.pneumoniae in the presence of 4% bovine serum albumin [11]	further results
CCCCCCCCCCCCCCCC(=O)N(CCCCNC(=N)N)CC(=O)N(CCCCNC(=N)N)CC(=O)N(CCCCNC(=N)N)CC(N)=O [C16-NhargNhargNharg]	8 µg/mL (≈ 10.4 µM)	512 µg/mL	8 µg/mL (≈ 10.4 µM)	512 µg/mL	64 µg/mL (≈ 83.5 µM)	>512 µg/mL	64 µg/mL (≈ 83.5 µM)	>512 µg/mL	128 µg/mL (≈ 167 µM)	>512 µg/mL	8 µg/mL (≈ 10.4 µM)	256 µg/mL	128 µg/mL (≈ 167 µM)	>512 µg/mL	16 µg/mL (≈ 20.9 µM)	512 µg/mL	16 µg/mL (≈ 20.9 µM)	512 µg/mL	256 µg/mL (≈ 334 µM)	>512 µg/mL	Percent haemolysis at 100µg/mL of compound [10]: 30.80%; MIC E.coli [12]: 16 µg/mL (≈ 20.9 µM); MIC E.coli in the presence of 4% bovine serum albumin [12]: 512 µg/mL; MIC E.coli [13]: 32 µg/mL (≈ 41.8 µM); MIC E.coli in the presence of 4% bovine serum albumin [13]: 512 µg/mL; MIC E.coli [14]: 32 µg/mL (≈ 41.8 µM); MIC E.coli in the presence of 4% bovine serum albumin [14]: >512 µg/mL; MIC MRSA [15]: 16 µg/mL (≈ 20.9 µM); MIC MRSA in the presence of 4% bovine serum albumin [15]: 512 µg/mL; MIC S.pneumoniae [16]: 64 µg/mL (≈ 83.5 µM)
CCCCCCCCCCCCCCCCCCCC(=O)N(CCCCNC(=N)N)CC(=O)NCC(=O)N(CCCCNC(=N)N)CC(N)=O [C20-NhargGNharg]	16 µg/mL (≈ 22.6 µM)	512 µg/mL	8 µg/mL (≈ 11.3 µM)	256 µg/mL	256 µg/mL (≈ 361 µM)	>512 µg/mL	512 µg/mL (≈ 722 µM)	>512 µg/mL	256 µg/mL (≈ 361 µM)	>512 µg/mL	8 µg/mL (≈ 11.3 µM)	256 µg/mL	128 µg/mL (≈ 181 µM)	>512 µg/mL	16 µg/mL (≈ 22.6 µM)	256 µg/mL	16 µg/mL (≈ 22.6 µM)	512 µg/mL	128 µg/mL (≈ 181 µM)	512 µg/mL	Percent haemolysis at 100µg/mL of compound [10]: 71.87%; MIC E.coli [12]: 256 µg/mL (≈ 361 µM); MIC E.coli in the presence of 4% bovine serum albumin [12]: 512 µg/mL; MIC E.coli [13]: 256 µg/mL (≈ 361 µM); MIC E.coli in the presence of 4% bovine serum albumin [13]: >512 µg/mL; MIC E.coli [14]: 256 µg/mL (≈ 361 µM); MIC E.coli in the presence of 4% bovine serum albumin [14]: 512 µg/mL; MIC MRSA [15]: 16 µg/mL (≈ 22.6 µM); MIC MRSA in the presence of 4% bovine serum albumin [15]: 512 µg/mL; MIC S.pneumoniae [16]: 256 µg/mL (≈ 361 µM); MIC S.pneumoniae in the presence of 4% bovine serum albumin [16]: 64 µg/mL
CCCCCCCCCCC(=O)N(CCCCNC(=N)N)CC(=O)N(CCCCNC(=N)N)CC(=O)N(CCCCNC(=N)N)CC(N)=O [C11-NhargNhargNharg]	128 µg/mL (≈ 184 µM)	512 µg/mL	256 µg/mL (≈ 368 µM)	512 µg/mL	>512 µg/mL	>512 µg/mL	>512 µg/mL	>512 µg/mL	>512 µg/mL	>512 µg/mL	64 µg/mL (≈ 92 µM)	512 µg/mL	>512 µg/mL	>512 µg/mL	256 µg/mL (≈ 368 µM)	512 µg/mL	512 µg/mL (≈ 736 µM)	>512 µg/mL	>512 µg/mL	>512 µg/mL	MIC E.coli [12]: >512 µg/mL; MIC E.coli in the presence of 4% bovine serum albumin [12]: >512 µg/mL; MIC E.coli [13]: >512 µg/mL; MIC E.coli in the presence of 4% bovine serum albumin [13]: >512 µg/mL; MIC E.coli [14]: >512 µg/mL; MIC E.coli in the presence of 4% bovine serum albumin [14]: >512 µg/mL; MIC MRSA [15]: 128 µg/mL (≈ 184 µM); MIC MRSA in the presence of 4% bovine serum albumin [15]: 512 µg/mL; MIC S.pneumoniae [16]: 512 µg/mL (≈ 736 µM); MIC S.pneumoniae in the presence of 4% bovine serum albumin [16]: >512 µg/mL
